In patent EP4541815A1, “ANTIBODY AGAINST HEPATITIS B VIRUS, PREPARATION THEREOF AND USE THEREOF” (priority 2022, dated 2023):

System: HBV D genotype
Experiment: Antiviral activity in HBV-infected liver-humanized chimeric hFRG mouse model, plasma HBV DNA by qPCR
Assay type: in vivo
Conditions: hFRG mice
Protocol: To investigate the therapeutic efficacy of afuco-A14 GA LS against established HBV infection, the efficacy of afuco-A14 GA LS administered alone and in combination with entecavir, was evaluated in a liver-humanized chimeric hFRG (Fah^-/- Rag2^-/- /IL2rg^-/-) mouse model. Entecavir is a hepatitis B virus reverse transcriptase inhibitor that treats hepatitis B by inhibiting viral replication. The disadvantage of entecavir is the rebound of viral replication upon discontinuation of treatment.
A control group (saline), an afuco-A14 GA LS monotherapy group (10 mg/kg), an entecavir (ETV) monotherapy group (ETV, 0.1 mg/kg), and a combination therapy group of afuco-A14 GA LS (10 mg/kg) and entecavir (0.1 mg/kg) were set up in the experiment, respectively. Mice were administered (afuco-A14 GALS was administered subcutaneously and ETV was administered orally) starting on day 28 (D28) post HBV infection (HBV D genotype, 2 × 10^9 GE/mouse). Thereafter, afuco-A14 GA LS was administered subcutaneously once a week (D35, D42, D49, D56, D63, and D70), while ETV was administered once a day until D70. The observation period continued after discontinuation until D91.
Plasma from experimental mice was collected by venous blood sampling, and then qPCR was used to quantitatively detect the level of HBV DNA in the plasma of the mice. […]

C=C1[C@H](CO)[C@@H](O)C[C@@H]1n1cnc2c(=O)[nH]c(N)nc21 [ETV, entecavir]
reduction of mean viral titre at the end of the study (D91) compared to the starting point of treatment (D28) (21 days post-discontinuation, afuco-A14 GA LS 10 mg/kg s.c., ETV 0.1 mg/kg oral): 7.15 fold
decrease of viral DNA levels at the final dose (D70) (treatment D28 to D70, afuco-A14 GA LS 10 mg/kg s.c. once a week, ETV 0.1 mg/kg oral once a day, compared to control group (saline)): ~436 fold
